The target of this experiment is human Nav1.8 (Homo sapiens, UniProt Q9Y5Y9). As to the kind of experiment: SyncroPatch384PE assay (automated patch clamp). The class given is cell-based. The conditions noted are these: human Nav1.8/b3 CHO cells. Background: The patch-clamp technique gives a direct electrical read-out from membranes.
The mark [1] stands for this setting: inactivated state block (P2 measurement), read-out: P2 IC50.
[2] abbreviates: resting state block (P1 measurement), read-out: P1 IC50.

Where two headings read alike, the source gives them in different places.

Sequence of human Nav1.8 (Q9Y5Y9 whole entry): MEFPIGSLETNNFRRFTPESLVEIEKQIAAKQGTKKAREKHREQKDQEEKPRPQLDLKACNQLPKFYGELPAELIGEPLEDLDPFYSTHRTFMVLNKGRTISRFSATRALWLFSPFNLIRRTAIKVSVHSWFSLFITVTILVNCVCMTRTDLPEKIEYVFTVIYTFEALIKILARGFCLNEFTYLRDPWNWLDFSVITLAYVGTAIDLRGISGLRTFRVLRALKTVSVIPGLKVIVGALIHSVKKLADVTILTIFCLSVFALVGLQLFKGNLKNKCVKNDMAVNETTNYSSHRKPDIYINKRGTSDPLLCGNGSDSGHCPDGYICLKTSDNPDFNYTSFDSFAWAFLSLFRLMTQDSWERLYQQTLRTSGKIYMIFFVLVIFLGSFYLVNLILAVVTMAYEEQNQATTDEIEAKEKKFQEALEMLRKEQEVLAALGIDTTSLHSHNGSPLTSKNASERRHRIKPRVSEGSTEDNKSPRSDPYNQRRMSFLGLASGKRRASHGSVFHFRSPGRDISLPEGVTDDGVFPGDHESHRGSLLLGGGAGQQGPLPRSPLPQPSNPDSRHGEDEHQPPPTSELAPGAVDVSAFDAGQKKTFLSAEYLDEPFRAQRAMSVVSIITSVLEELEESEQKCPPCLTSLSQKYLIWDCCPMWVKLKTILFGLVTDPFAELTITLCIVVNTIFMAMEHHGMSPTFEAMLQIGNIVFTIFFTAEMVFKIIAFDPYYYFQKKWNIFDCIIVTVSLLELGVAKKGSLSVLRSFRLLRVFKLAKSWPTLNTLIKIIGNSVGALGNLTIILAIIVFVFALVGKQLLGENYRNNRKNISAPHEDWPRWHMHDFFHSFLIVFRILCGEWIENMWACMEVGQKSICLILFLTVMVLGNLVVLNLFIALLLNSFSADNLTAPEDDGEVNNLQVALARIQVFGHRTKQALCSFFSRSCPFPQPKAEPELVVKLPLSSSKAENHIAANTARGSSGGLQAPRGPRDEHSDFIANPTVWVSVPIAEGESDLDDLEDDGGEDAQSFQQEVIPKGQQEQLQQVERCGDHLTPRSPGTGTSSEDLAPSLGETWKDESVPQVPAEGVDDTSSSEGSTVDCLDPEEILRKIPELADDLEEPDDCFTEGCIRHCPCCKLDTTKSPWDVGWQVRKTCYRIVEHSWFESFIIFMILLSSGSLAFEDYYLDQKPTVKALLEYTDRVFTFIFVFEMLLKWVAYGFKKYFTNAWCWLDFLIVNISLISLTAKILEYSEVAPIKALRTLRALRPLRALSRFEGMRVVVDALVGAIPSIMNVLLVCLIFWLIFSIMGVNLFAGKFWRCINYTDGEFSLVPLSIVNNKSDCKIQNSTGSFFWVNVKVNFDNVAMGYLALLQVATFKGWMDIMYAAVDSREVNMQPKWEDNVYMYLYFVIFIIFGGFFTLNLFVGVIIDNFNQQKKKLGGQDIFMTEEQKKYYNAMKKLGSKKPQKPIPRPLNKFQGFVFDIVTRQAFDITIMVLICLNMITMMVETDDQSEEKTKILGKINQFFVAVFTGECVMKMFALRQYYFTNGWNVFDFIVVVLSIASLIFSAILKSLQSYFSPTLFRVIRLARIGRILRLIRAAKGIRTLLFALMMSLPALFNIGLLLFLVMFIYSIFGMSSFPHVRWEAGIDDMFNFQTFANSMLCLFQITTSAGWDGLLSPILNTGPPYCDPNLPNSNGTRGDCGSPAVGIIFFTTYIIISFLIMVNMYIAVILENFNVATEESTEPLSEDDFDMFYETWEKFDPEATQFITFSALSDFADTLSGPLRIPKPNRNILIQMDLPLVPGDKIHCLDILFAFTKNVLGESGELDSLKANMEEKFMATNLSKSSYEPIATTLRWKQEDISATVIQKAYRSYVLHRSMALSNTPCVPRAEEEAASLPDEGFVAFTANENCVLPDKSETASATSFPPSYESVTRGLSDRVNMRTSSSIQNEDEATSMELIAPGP

`Cc1c(N2CC3(COC3)C2)cnc(N2CCCC(F)(F)CC2)c1C(=O)Nc1cccc([S@](C)(=N)=O)c1` [Example 116, (R)-2-(4,4-difluoroazepan-1-yl)-4-methyl-N-(3-(S-methylsulfonimidoyl)phenyl)-5-(2-oxa-6-azaspiro[3.3]heptan-6-yl)nicotinamide]: the IC50 under setting [1] was > 200 nM and the IC50 under setting [2] was > 200 nM.
Take `CNCC(=O)N=[S@](C)(=O)c1cccc(NC(=O)c2c(N3CCCC(F)(F)CC3)ncc(-c3cnn(C4CC4)c3)c2C)c1` [Example 70, (R)-5-(1-cyclopropyl-1H-pyrazol-4-yl)-2-(4,4-difluoroazepan-1-yl)-4-methyl-N-(3-(S-methyl-N-(methylglycyl)sulfonimidoyl)phenyl)nicotinamide]: the IC50 by setting is: under setting [1], ≤ 5 nM; under setting [2], ≤ 5 nM.
For `Cc1c(C2CC2)nnc(N2CCCC(F)(F)CC2)c1C(=O)Nc1cccc(S(C)(=N)=O)c1` (stereo not shown) [Example 22, 6-cyclopropyl-3-(4,4-difluoroazepan-1-yl)-5-methyl-N-(3-(S-methylsulfonimidoyl)phenyl)pyridazine-4-carboxamide], the IC50 was > 200 nM under setting [1] and > 200 nM under setting [2].
Turning to `Cc1c(-c2cnn(C3CC3)c2)cnc(N2CCCC(F)(F)CC2)c1C(=O)Nc1cccc([S@](C)(=N)=O)c1` [Example 69, (R)-5-(1-cyclopropyl-1H-pyrazol-4-yl)-2-(4,4-difluoroazepan-1-yl)-4-methyl-N-(3-(S-methylsulfonimidoyl)phenyl)nicotinamide], the IC50 is, setting by setting: under setting [1], 5 to 50 nM; under setting [2], 5 to 50 nM.
For `Cc1c(C(F)(F)F)cnc(N2CCCC(F)(F)CC2)c1C(=O)Nc1cccc([S@@](C)(=O)=NC(=O)[C@H](C)O)c1` [Example 192, 2-(4,4-difluoroazepan-1-yl)-N-(3-((R)-N-((S)-2-hydroxypropanoyl)-S-methylsulfonimidoyl)phenyl)-4-methyl-5-(trifluoromethyl)nicotinamide], the IC50 reads like this: under setting [1], ≤ 5 nM; under setting [2], ≤ 5 nM.
With `C[S@@](=N)(=O)c1cccc(NC(=O)c2cc(Cl)c(C(F)(F)F)cc2N2CCO[C@H](C(F)(F)F)C2)c1` [Example 215, 5-chloro-N-(3-((R)—S-methylsulfonimidoyl)phenyl)-4-(trifluoromethyl)-2-((S)-2-(trifluoromethyl)morpholino)benzamide], the half-inhibitory concentration (IC50) runs as follows: under setting [1], 5 to 50 nM; under setting [2], 5 to 50 nM.
For the molecule `Cc1c(C(F)(F)F)nnc(N2CCCCCC2)c1C(=O)N=S(C)(=O)c1cccc(N)c1` (stereo not shown) [Example 8, N-((3-aminophenyl)(methyl)(oxo)-λ^6-sulfaneylidene)-3-(azepan-1-yl)-5-methyl-6-(trifluoromethyl)pyridazine-4-carboxamide], the IC50 under setting [1] was > 200 nM and the IC50 under setting [2] was > 200 nM.
Consider `Cc1c(-c2ccccc2)nnc(N2CCCC(F)(F)CC2)c1C(=O)Nc1cccc([S@](C)(=N)=O)c1` [Example 118, (R)-3-(4,4-difluoroazepan-1-yl)-5-methyl-N-(3-(S-methylsulfonimidoyl)phenyl)-6-phenylpyridazine-4-carboxamide], for which the IC50 reads like this: under setting [1], 50 to 100 nM; under setting [2], 50 to 100 nM.
Consider `Cc1c(C#N)nnc(N2CCCC(F)(F)CC2)c1C(=O)Nc1cccc([S@](C)(=N)=O)c1` [Example 139, (R)-6-cyano-3-(4,4-difluoroazepan-1-yl)-5-methyl-N-(3-(S-methylsulfonimidoyl)phenyl)pyridazine-4-carboxamide], for which the IC50 runs as follows: under setting [1], 100 to 200 nM; under setting [2], > 200 nM.
For `Cc1c(C(N)=O)cnc(N2CCCC(F)(F)CC2)c1C(=O)Nc1cccc([S@](C)(=N)=O)c1` [Example 129, (R)-2-(4,4-difluoroazepan-1-yl)-4-methyl-N3-(3-(S-methylsulfonimidoyl)phenyl)pyridine-3,5-dicarboxamide] the same measures were > 200 nM and > 200 nM.
For `Cc1c(Cl)c(-c2cnn(C)c2)nc(N2CCCC(F)(F)CC2)c1C(=O)Nc1ccnc([S@](C)(=N)=O)c1` [Example 212, (R)-5-chloro-2-(4,4-difluoroazepan-1-yl)-4-methyl-6-(1-methyl-1H-pyrazol-4-yl)-N-(2-(S-methylsulfonimidoyl)pyridin-4-yl)nicotinamide], in that order: 5 to 50 nM and 5 to 50 nM.
`Cc1c(-c2cn[nH]c2)cnc(N2CCCC(F)(F)CC2)c1C(=O)Nc1cccc([S@](C)(=N)=O)c1` [Example 144, (R)-2-(4,4-difluoroazepan-1-yl)-4-methyl-N-(3-(S-methylsulfonimidoyl)phenyl)-5-(1H-pyrazol-4-yl)nicotinamide]: the IC50 runs as follows: under setting [1], > 200 nM; under setting [2], > 200 nM.
`Cc1c(C(F)(F)F)nnc(N2CCCC(F)(F)CC2)c1C(=O)NC12CC(C(N)=O)(C1)C2` [Example 128, N-(3-carbamoylbicyclo[1.1.1]pentan-1-yl)-3-(4,4-difluoroazepan-1-yl)-5-methyl-6-(trifluoromethyl)pyridazine-4-carboxamide]: the IC50 reads like this: under setting [1], > 200 nM; under setting [2], > 200 nM.
`Cc1c(C(F)(F)F)cnc(N2CCCC(F)(F)CC2)c1C(=O)Nc1cccc([S@@](C)(=O)=NC(=O)C(C)(C)N)c1` [Example 187, (R)-N-(3-(N-(2-amino-2-methylpropanoyl)-S-methylsulfonimidoyl)phenyl)-2-(4,4-difluoroazepan-1-yl)-4-methyl-5-(trifluoromethyl)nicotinamide]: the IC50 is, setting by setting: under setting [1], ≤ 5 nM; under setting [2], ≤ 5 nM.
On to `Cc1ccsc1-c1nnc(N2CCCCCC2)c(C(=O)Nc2cccc(S(C)(=N)=O)c2)c1C` (stereo not shown) [Example 79, 3-(Azepan-1-yl)-5-methyl-N-(3-(S-methylsulfonimidoyl)phenyl)-6-(3-methylthiophen-2-yl)pyridazine-4-carboxamide], for which the IC50 was > 200 nM under setting [1] and > 200 nM under setting [2].
With `Cc1c(-c2cnn(C)c2)cnc(N2CCCC(F)(F)CC2)c1C(=O)NC12CC(C(N)=O)(C1)C2` [Example 132, N-(3-carbamoylbicyclo[1.1.1]pentan-1-yl)-2-(4,4-difluoroazepan-1-yl)-4-methyl-5-(1-methyl-1H-pyrazol-4-yl)nicotinamide], the concentration for half-maximal inhibition (IC50) was > 200 nM under setting [1] and > 200 nM under setting [2].
Regarding `CS(=N)(=O)c1cc(NC(=O)c2cc(C(F)(F)F)nnc2N2CCCCCC2)ccn1` (stereo not shown) [Example 2, 3-(azepan-1-yl)-N-{2-[imino(methyl)oxo-λ^6-sulfanyl]pyridin-4-yl}-6-(trifluoromethyl)pyridazine-4-carboxamide], the IC50 is > 200 nM under setting [1] and > 200 nM under setting [2].
In the case of `Cc1c(-c2cnn(C)c2)nnc(N2CCCC(F)(F)CC2)c1C(=O)Nc1cccc([S@](C)(=N)=O)c1` [Example 71, (R)-3-(4,4-difluoroazepan-1-yl)-5-methyl-6-(1-methyl-1H-pyrazol-4-yl)-N-(3-(S-methylsulfonimidoyl)phenyl)pyridazine-4-carboxamide], the IC50 under setting [1] was > 200 nM and the IC50 under setting [2] is > 200 nM.
For `CNCCN=[S@](C)(=O)c1cccc(NC(=O)c2c(N3CCCC(F)(F)CC3)ncc(Br)c2C)c1` [Example 211, (R)-5-bromo-2-(4,4-difluoroazepan-1-yl)-4-methyl-N-(3-(S-methyl-N-(2-(methylamino)ethyl)sulfonimidoyl)phenyl)nicotinamide 2,2,2-trifluoroacetate], the IC50 by setting is: under setting [1], ≤ 5 nM; under setting [2], ≤ 5 nM.
Regarding `CS(=N)(=O)c1cccc(NC(=O)c2ccc(CC3CC3)nc2N2CCC3(CC2)CC3)c1` (stereo not shown) [Example 80, 6-(cyclopropylmethyl)-N-(3-(S-methylsulfonimidoyl)phenyl)-2-(6-azaspiro[2.5]octan-6-yl)nicotinamide], the IC50 under setting [1] fell in the range of 5 to 50 nM and the IC50 under setting [2] lay within 5 to 50 nM.
Regarding `Cc1c(C(F)(F)F)ncc(N2CCCC(F)(F)CC2)c1C(=O)Nc1cccc([S@](C)(=N)=O)c1` [Example 197, (R)-5-(4,4-difluoroazepan-1-yl)-3-methyl-N-(3-(S-methylsulfonimidoyl)phenyl)-2-(trifluoromethyl)isonicotinamide], the IC50 was 50 to 100 nM under setting [1] and 50 to 100 nM under setting [2].
With `Cc1nc(N2CCCC(F)(F)CC2)c(C(=O)Nc2cccc(S(=N)(N)=O)c2)cc1C(F)(F)F` (stereo not shown) [Example 121, 2-(4,4-difluoroazepan-1-yl)-6-methyl-N-(3-sulfamidimidoylphenyl)-5-(trifluoromethyl)nicotinamide], the IC50 under setting [1] was ≤ 5 nM and the IC50 under setting [2] is ≤ 5 nM.
Regarding `Cc1cc(C(F)(F)F)nc(N2CCCC(F)(F)CC2)c1C(=O)Nc1cccc([S@](C)(=N)=O)c1` [Example 33, (R)-2-(4,4-Difluoroazepan-1-yl)-4-methyl-N-(3-(S-methylsulfonimidoyl)phenyl)-6-(trifluoromethyl)nicotinamide], the IC50 by setting is: under setting [1], ≤ 5 nM; under setting [2], ≤ 5 nM.
As for `Cc1c(-c2cnn(C)c2)cnc(N2CCCC(F)(F)CC2)c1C(=O)Nc1ccc(F)c([S@@](C)(=N)=O)c1` [Example 213, (S)-2-(4,4-difluoroazepan-1-yl)-N-(4-fluoro-3-(S-methylsulfonimidoyl)phenyl)-4-methyl-5-(1-methyl-1H-pyrazol-4-yl)nicotinamide], the half-maximal inhibitory concentration (IC50) by setting is: under setting [1], 100 to 200 nM; under setting [2], 100 to 200 nM.
Regarding `Cc1c(C(F)(F)F)nnc(N2CCCC(F)(F)CC2)c1C(=O)Nc1cccc([S@@](C)(=O)=NC(=O)[C@@H](C)O)c1` [Example 179, 3-(4,4-difluoroazepan-1-yl)-N-(3-((R)-N-((R)-2-hydroxypropanoyl)-S-methylsulfonimidoyl)phenyl)-5-methyl-6-(trifluoromethyl)pyridazine-4-carboxamide], the IC50 under setting [1] is ≤ 5 nM and the IC50 under setting [2] was ≤ 5 nM.
As to `C[S@@](=N)(=O)c1cccc(NC(=O)c2cc(Cl)c(C(F)(F)F)cc2N2CCCC(F)(F)CC2)c1` [Example 77, (R)-5-chloro-2-(4,4-difluoroazepan-1-yl)-N-(3-(S-methylsulfonimidoyl)phenyl)-4-(trifluoromethyl)benzamide], the IC50 runs as follows: under setting [1], ≤ 5 nM; under setting [2], ≤ 5 nM.

By IC50 is commonly meant the point on the concentration scale where inhibition reaches its midpoint.

Source of the values: US20250154109A1, “SODIUM CHANNEL BLOCKING COMPOUNDS, DERIVATIVES THEREOF, AND METHODS OF THEIR USE” (LATIGO BIOTHERAPEUTICS, INC, priority 2022, published 2025).
